According to patent US20170165236A1, “SELECTIVE SPHINGOSINE 1 PHOSPHATE RECEPTOR MODULATORS AND COMBINATION THERAPY THEREWITH” (Celgene International II Sàrl, priority 2013, published 2017):

Assays:
S1P1 R120A/E121A = S1P1 R120A/E121A (Homo sapiens, UniProt P21453, E121A/R120A); assay: Phosphorylated-ERK1/2 In Cell Western, S1P1 mutant R120A/E121A; assay type: cell-based
Experimental: (§1) Quick-change mutagenesis with PfuTurbo DNA polymerase (Stratagene) was conducted using S1P1/pcDNA3.1 (Missouri S&T cDNA Resource Centre) as the template. Primers were as follows: […]
(§2) PCR conditions were 15 cycles with the following parameters: 95° C. 30 sec, 58° C. 30 sec, 68° C. for 60 sec. All constructs were sequence verified.
(§3) CHOK1 cells were transfected using Fugene (Roche). Stably expressing mixed pools were selected with 2 mg/ml G418. Expression of functional S1P1/EDG1 receptor was confirmed by cell surface FACS with a S1P1 antibody (R&D Systems, clone 218713). Stable pools were seeded at 40,000 cells/well in a clear bottom 96-well tray, and incubated at 37° C. in 5% CO2 for 18 hrs. Cells were serum-starved in FreeStyle 293 medium (Invitrogen) for 4-6 h, then incubated for 5 min with a dose response of compound, in duplicate. Cells were fixed with 4% paraformaldehyde for 20 min, permeabilized with 0.1% Triton X-100 in PBS (4×5 min washes) and blocked for 1 h in Odyssey Blocking Buffer (LI-COR). All incubations were at room temperature. Cells were incubated for 18 h at 4° C. in Rabbit anti-Phospho-ERK1/2 (Cell Signaling #4377) and Mouse anti-ERK1/2 (Cell Signaling #9107) both diluted 1:800 in Odyssey Blocking Buffer. […] Data was analyzed by non-linear regression using GraphPad Prism to determine the EC50 of binding.

S1P1 = S1P1 (Homo sapiens, UniProt P21453); assay: Phosphorylated-ERK1/2 In Cell Western, wild type S1P1 in CHOK1; assay type: cell-based
S1P1, sequence (P21453 whole entry): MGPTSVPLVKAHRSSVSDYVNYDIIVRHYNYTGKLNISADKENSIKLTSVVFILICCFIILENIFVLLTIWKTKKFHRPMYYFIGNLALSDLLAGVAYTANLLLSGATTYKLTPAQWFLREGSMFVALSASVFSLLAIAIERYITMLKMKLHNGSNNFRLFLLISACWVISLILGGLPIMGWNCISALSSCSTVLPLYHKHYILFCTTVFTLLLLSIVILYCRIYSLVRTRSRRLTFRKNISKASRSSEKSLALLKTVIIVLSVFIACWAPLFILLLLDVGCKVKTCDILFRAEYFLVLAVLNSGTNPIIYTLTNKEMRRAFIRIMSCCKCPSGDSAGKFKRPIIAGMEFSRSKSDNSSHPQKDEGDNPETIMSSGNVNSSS
Experimental: as §3, with “Buffer. Plates were washed with 0.1% Tween-20 in PBS and then incubated with Odyssey Blocking Buffer containing IRDye 680-labeled goat anti-rabbit antibody (#926-32221; diluted 1/500) and IRDye 800CW-labeled goat anti-mouse antibody (#926-32210; diluted 1/1000). Plates were washed with 0.1% Tween-20 in PBS, all liquid was removed from the wells and the plates were scanned using a LICOR Odyssey scanner.” for “Buffer.”

S1P1 N101A = S1P1 N101A (Homo sapiens, UniProt P21453, N101A); assay: Phosphorylated-ERK1/2 In Cell Western, S1P1 mutant N101A; assay type: cell-based
S1P1 N101A, sequence (P21453 whole entry N101A): as the sequence (P21453 whole entry) above, with N101A counted along it
Experimental: as §1, §2, §3

S1P1 W269L = S1P1 W269L (Homo sapiens, UniProt P21453, W269L); assay: S1P1 mutagenesis analysis, W269L mutant; assay type: cell-based
S1P1 W269L, sequence (P21453 whole entry W269L): as the sequence (P21453 whole entry) above, with W269L counted along it
Experimental: as §3, with “Buffer. Plates were washed with 0.1% Tween-20 in PBS and then incubated with Odyssey Blocking Buffer containing IRDye 680-labeled goat anti-rabbit antibody (#926-32221; diluted 1/500) and IRDye 800CW-labeled goat anti-mouse antibody (#926-32210; diluted 1/1000). Plates were washed with 0.1% Tween-20 in PBS, all liquid was removed from the wells and the plates were scanned using a LICOR Odyssey scanner.” for “Buffer.”, “binding. […]” for “binding.”

[1] = system: CD4 or CD8 positive T cells; details: racemic compound 253; data stated as reported by Gonzalez-Cabrera et al. 2008; cited from earlier work
S1P1/EDG1 = S1P1/EDG1 (Homo sapiens, UniProt P21453); assay: S1P1 CRE-bla CHOK1 reporter assay, inhibition of Forskolin induced cAMP; assay type: cell-based; details: CRE-bla CHOK1 cells, 2 μM Forskolin; read-out: S1P1 ACTIVITY (agonist activity)
S1P1/EDG1, sequence (P21453 whole entry): as the sequence (P21453 whole entry) above
Experimental: Generation of S1P1-Mediated Inhibition of cAMP Reporter Assay
S1P1/pcDNA3.1 was transfected into the CRE-bla CHO K1 (Invitrogen) cell line, and stable single cell clones were selected using standard techniques.
S1P1 CRE-Bla CHOK1 Reporter Assay—Characterization of S1P1 Agonists
Cells were seeded into 384-well black wall/clear bottom plates at 10^4 cells/well/19.5 μl assay media (DMEM-phenol free, 0.5% charcoal/dextran stripped serum, 2 mM glutamine, 0.1 mM NEAA, 1 mM Na-Pyruvate, 25 mM Hepes) and incubated for 18 hrs at 37° C. in 5% CO2. Dose response curves (10-point) were generated in 10 mM Hepes, 0.1% Pluronic F127, in the presence of Forskolin. Cells were treated with 0.5 μl compound in the presence of 2 μM Forskolin for 4 hrs at 37° C. The FRET-based β-lactamase fluorescent substrate (LiveBLAzer™-FRET B/G Loading Kit CC4-AM; Invitrogen) was prepared according to manufacturer's directions, and incubated with cells for 2 hrs at room temperature. […] Data was analyzed by non-linear regression to determine the EC50 for inhibition of Forskolin induced cAMP.

[2] = system: influenza A virus (A/WSN/33); assay: Influenza A H1N1 model in mice; details: mouse, in vivo

S1P1 R120A/E121A, sequence (P21453 whole entry R120A/E121A): as the sequence (P21453 whole entry) above, with R120A, E121A counted along it

SMILES | EC50 (S1P1/EDG1) [nM] | further results
CC(C)Oc1ccc(-c2nc(-c3cccc4c3CCC4NCCC(=O)O)no2)cc1C#N (racemic) [Compound 38] | – | effect of S1P1 mutation on binding (S1P1 R120A/E121A): diminishes binding; S1P1 agonism, phosphorylation of ERK1/2 (S1P1): induce phosphorylation of ERK1/2; effect of S1P1 mutation on binding (S1P1 N101A): no effect on binding; effect of S1P1 mutation on binding (S1P1 W269L): abolishes binding
CCOc1ccc(-c2nc(-c3cccc4c3CCC4NCCO)no2)cc1OCC (racemic) [Compound 253, (+/−)-2-((4-(5-(3,4,DIETHOXYPHENYL)-1,2,4-OXADIAZOL-3-YL)-2,3-DIHYDRO-1H-INDEN-1-YL) AMINO)ETHANOL] | – | Mouse Lymphopenia (AUEC) [1]: 116
CCOc1ccc(-c2nc(-c3cccc4c3CC[C@H]4O)no2)cc1[N+](=O)[O-] [Compound 11] | 0.5 to 5 | –
CCOc1ccc(-c2nc(-c3cccc4c3CC[C@@H]4O)no2)cc1[N+](=O)[O-] [Compound 12] | 0.5 to 5 | –
CC(C)Oc1ccc(-c2nc(-c3cccc4c3CCC4NC[C@H](O)CO)no2)cc1C#N (stereo partly shown) [Compound 41] | 0.05 to 0.5 | –
CC(C)Oc1ccc(-c2nc(-c3cccc4c3CCC4NC[C@@H](C)O)no2)cc1C#N (stereo partly shown) [Compound 42] | 0.5 to 5 | –
CC(C)Oc1ccc(-c2nc(-c3cccc4c3CCC4NC[C@H](C)O)no2)cc1C#N (stereo partly shown) [Compound 43] | 0.05 to 0.5 | –
CC(C)Oc1ccc(-c2nc(-c3cccc4c3CC[C@@H]4N)no2)cc1C#N [Compound 50, (S)-5-(3-(1-amino-2,3-dihydro-1H-inden-4-yl)-1,2,4-oxadiazol-5-yl)-2-isopropoxy-benzonitrile] | – | effect of S1P1 mutation on binding (S1P1 R120A/E121A): no influence on the binding; S1P1 agonism, phosphorylation of ERK1/2 (S1P1): induce phosphorylation of ERK1/2; effect of S1P1 mutation on binding (S1P1 N101A): reduces the binding; effect of S1P1 mutation on binding (S1P1 W269L): abolishes binding
CC(C)Oc1ccc(-c2nc(-c3cccc4c3CC[C@H]4NC(C)C(=O)N(C)C)no2)cc1C#N (stereo partly shown) [Compound 58] | 0.5 to 5 | –
CC(C)Oc1ccc(-c2nc(-c3cccc4c3CC[C@H]4NCC(=O)N3CCOCC3)no2)cc1C#N [Compound 59] | 0.05 to 0.5 | –
CC(C)Oc1ccc(-c2nc(-c3cccc4c3CC[C@H]4NS(C)(=O)=O)no2)cc1C#N [Compound 70] | 0.05 to 0.5 | –
CNCCS(=O)(=O)N[C@@H]1CCc2c(-c3noc(-c4ccc(OC(C)C)c(C#N)c4)n3)cccc21 [Compound 74] | 0.05 to 0.5 | –
CC(C)Oc1ccc(-c2nc(-c3cccc4c3CC[C@H]4NS(=O)(=O)CCN(C)C)no2)cc1C#N [Compound 77] | 0.05 to 0.5 | –
CC(C)Oc1ccc(-c2nc(-c3cccc4c3CC[C@H]4NCCO)no2)cc1C#N [Compound 85, (R)-5-(3-(1-(2-hydroxyethylamino)-2,3-dihydro-1H-inden-4-yl)-1,2,4-oxadiazol-5-yl)-2-isopropoxybenzonitrile] | – | suppression of cellular infiltrate into the lungs [2]: 40%
COCCN[C@@H]1CCc2c(-c3noc(-c4ccc(OC(C)C)c(C#N)c4)n3)cccc21 [Compound 88] | 0.5 to 5 | –
CC(C)Oc1ccc(-c2nc(-c3cccc4c3CC[C@H]4N(C)CCO)no2)cc1C#N [Compound 111] | 0.5 to 5 | –
CC(C)Oc1ccc(-c2nc(-c3cccc4c3CC[C@@H]4N(C)CC(=O)N(C)C)no2)cc1C#N [Compound 115] | 0.5 to 5 | –
CC(C)Oc1ccc(-c2nc(-c3cccc4c3CC[C@@H]4N(CCO)S(=O)(=O)c3ccccc3)no2)cc1C#N [Compound 117] | > 5 | –
CC(C)Oc1ccc(-c2nc(-c3cccc4c3CC[C@@H]4NC(=O)N(C)C)no2)cc1C#N [Compound 120] | 0.05 to 0.5 | –
CC(C)Oc1ccc(-c2nc(-c3cccc4c3CC[C@H]4NC(=O)c3ccc(Br)cc3)no2)cc1C#N [Compound 122] | > 5 | –
CC(C)Oc1ccc(-c2nc(-c3cccc4c3CC[C@H]4NS(=O)(=O)CCN3CCC3)no2)cc1C#N [Compound 168] | 0.05 to 0.5 | –
CC(C)Oc1ccc(-c2nc(-c3cccc4c3CC[C@@H]4NS(=O)(=O)CCN3CCC(O)CC3)no2)cc1C#N [Compound 178] | 0.5 to 5 | –
CC(C)Oc1ccc(-c2nc(-c3cccc4c3CC[C@@H]4NS(=O)(=O)CCN3CCNCC3)no2)cc1C#N [Compound 179] | 0.5 to 5 | –
CC(C)Oc1ccc(-c2nc(-c3cccc4c3CC[C@@H]4NS(=O)(=O)CCNCCO)no2)cc1C#N [Compound 180] | 0.05 to 0.5 | –
CC(C)Oc1ccc(-c2nc(-c3cccc4c3CC[C@@H]4NS(=O)(=O)CCN3CC(O)C3)no2)cc1C#N [Compound 181] | 0.05 to 0.5 | –
